Assay results reported in patent US11208407B2, “Substituted phenyl compounds as indoleamine 2,3-dioxygenase (IDO) inhibitors” (Merck Sharp & Dohme Corp., priority 2017, dated 2021).

Legend:
[1] = target: T1, IDO1 (Homo sapiens, UniProt P14902); assay: IDO1 Human Whole Blood Assay; assay type: cell-based; parameters: Human whole blood was drawn in sodium heparin coated tubes from healthy internal donors; from tissue; host or cells: Human whole blood from healthy donors, stimulated with LPS and IFNγ; conditions: LPS and IFNγ 100 ng/mL, 18 h, kynurenine by LC/MS/MS
Procedure: IDO1 Human Whole Blood Assay
Compounds to be tested were serially diluted in ten 3-fold steps in DMSO starting from 10 mM. 3 µL of compound dilutions or DMSO alone were then dispensed from the dilution plate into a polypropylene 96-well assay plate containing 97 µL of RPMI medium using an Echo 555 acoustic liquid handler (Labcyte). LPS (lipopolysaccharide) and IFNγ was prepared in RPMI to a 10× of final conc. (1000 ng/mL), final concentration is 100 ng/mL.
Human whole blood was drawn in sodium heparin coated tubes from healthy internal donors. 240 µL of blood was transferred to each of the wells of a v-bottom 96 well plate. 30 µL of compound was transferred from intermediate dilution plate, and incubated for 15 min. 30 μL from stimulants was then transferred to blood and mixed thoroughly. Plate was covered with breathable membrane and incubated at 37° C. for overnight (18 h).
On day 2, isotope labeled standard solutions of kunurenine and tryptophan was made in water at 10× concentration and 30 µL was added to the blood at 3 µM final concentration. The assay plates were centrifuged at 300×G for 10 min with no brake to separate plasma from red blood cells. 60 µL of plasma samples was removed without disturbing red blood cells. Plasma was diluted with RPMI medium in 1:1 ratio and proteins were precipitated out with two volumes of Acetonitrile. The plates were centrifuged at 4000×G for 60 min. 20 µL of supernatant was carefully transferred to a 384 well plate containing 40 µL of 0.1% formic acid in water and analyzed by LC/MS/MS.
LC/MS/MS analyses were performed using Thermo Fisher's LX4-TSQ Quantum Ultra system. This system consists of four Agilent binary high-performance liquid chromatography (HPLC) pumps and a TSQ Quantum Ultra triple quadrupole MS/MS instrument. For each sample, 5 µL were injected onto an Atlantis T3 column (2.1 mm×150 mm, 3 µm particle size) from Waters. The mobile phase gradient pumped at 0.8 mL/min was used to elute the analytes from the column at 25° C. The elution started at 0% B increasing linearly to 25% B at 6.5 min, holding at 25% for 1 min, re-equilibrating to 10 min. Mobile phase A consisted of 0.1% formic acid in water. Mobile phase B consisted of 0.1% of formic acid in acetonitrile. Data was acquired in positive mode using a HESI interface. The operational parameters for the TSQ Quantum Ultra instrument were a spray voltage of 4000 V, capillary temperature of 380° C., vaporizer temperature 400° C., shealth gas 60 arbitrary units, Aux gas 20 arbitrary units, tube lens 85 and collision gas 1.2 mTorr. SRM (selected-reaction monitoring) chromatograms of kynurenine (Q1: 209.2>Q3:94.0) and internal standard (Q1: 215.3>Q3:98.2) were collected for 90 sec. The peak area was integrated by Xcalibur Quan software. The ratios between the kynurenine generated in the reaction and 2D6-Kynurenine spiked-in internal standard were used to generate percentage inhibition and IC50 values. Compounds were titrated and IC50's were calculated by 4 parameter sigmoidal curve fitting formula.

[2] = target: T1, IDO1; assay: IDO1 Cellular Assay in HeLa Cells Stimulated with IFNγ; assay type: cell-based; conditions: IFNγ 100 ng/mL, 300 uM L-tryptophan, about 48 hours, read-out: IDO HeLa Cell Assay, IC50
Procedure: Biological Assays IDO1 Cellular Assay in HeLa Cells Stimulated with IFNγ
HeLa cells were cultured in complete HeLa culture medium (90% EMEM, 10% heat-inactivated fetal bovine serum) and expanded to about 1×10^9 cells. The cells were then collected and frozen down at 1×10^7 cells/vial in 1 mL frozen medium (90% complete HeLa culture medium, 10% DMSO).
Compounds to be tested were serially diluted in ten 3-fold steps in DMSO starting from 10 mM DMSO stocks in Echo low volume plate(s). Compound dilutions or DMSO alone were then dispensed from the dilution plate(s) into Greiner black 384-well assay plate(s) (catalog #781086, 50 nL/well) using an Echo 550 acoustic liquid handler (Labcyte).
Frozen HeLa cells were thawed and transferred into HeLa assay medium (99% complete HeLa culture medium, 1% Pen/Strep) with 20 mL medium/vial of cells. The cells were spun down at 250 g in a table top centrifuge for 5 min and suspended in same volume of HeLa assay medium. The cells were then counted and adjusted to a density of 2×10^5 cells/mL in HeLa assay medium. Sterile L-tryptophan were added to the cells with final concentration of 300 uM L-tryptophan. A small aliquot (2 mL/plate) of HeLa cells were set aside and were not treated with IFNγ, to serve as the Max-E control.
HeLa cells with and without IFNγ were dispensed to the respective wells of 384-well assay plates containing the compounds. The plates were incubated for about 48 hours at a 37° C., 5% CO2 incubator. Afterwards, 12 μL of 0.5 M methyl isonipecotate in dimethyl sulfoxide were added into each well and the plates were sealed and incubated at 37° C. without CO2 overnight. The plates were centrifuged for 1 min at 200×g. The resulting fluorescence was measured in a Spectramax plate reader (Molecular Devices) with a 400 nm excitation filter and a 510 nm emission filter.
The fluorescence intensity of each well was corrected for the background observed in wells with non-IFNγ-treated cells and was expressed as a fraction of the intensity observed in wells of IFNγ-treated cells and DMSO only. Potencies were calculated by linear least squares fit to the four parameter logistic IC50 equation.

T1 sequence (P14902 whole entry): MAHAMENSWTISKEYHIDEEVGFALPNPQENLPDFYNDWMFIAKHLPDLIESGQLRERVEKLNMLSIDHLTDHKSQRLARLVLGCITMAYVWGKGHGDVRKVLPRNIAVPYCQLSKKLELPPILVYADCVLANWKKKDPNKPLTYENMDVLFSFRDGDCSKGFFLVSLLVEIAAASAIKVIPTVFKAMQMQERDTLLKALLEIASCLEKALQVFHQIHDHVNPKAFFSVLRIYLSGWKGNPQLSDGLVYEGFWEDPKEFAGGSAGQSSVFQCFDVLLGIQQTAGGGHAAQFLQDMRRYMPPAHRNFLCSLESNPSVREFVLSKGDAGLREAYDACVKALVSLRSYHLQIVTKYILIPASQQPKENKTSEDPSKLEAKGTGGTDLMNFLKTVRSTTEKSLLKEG

| Structure (SMILES) | IC50 [1] | IC50 [2] |
| --- | --- | --- |
| O=C(Nc1ccc(C2(c3nc4ncc(Cl)cc4[nH]3)CC(F)(F)C2)cc1)c1cccc(Cl)c1 [Example 24, 3-Chloro-N-(4-(1-(6-chloro-1H-imidazo[4,5-b]pyridin-2-yl)-3,3-difluorocyclobutyl)phenyl)benzamide] | 0.12 µM | 0.00185 µM |
| N#Cc1cccc(C(=O)Nc2ccc(C3(c4nc5ccc(C#N)cc5[nH]4)CC(F)C3)cc2)c1 (stereo not shown) [Example 26, 3-Cyano-N-(4-(1-(6-cyano-1H-benzo[d]imidazol-2-yl)-3-fluorocyclobutyl)phenyl)benzamide] | 0.182 µM | 0.00184 µM |
| N#Cc1cccc(C(=O)Nc2ccc(C3(c4nc5cc(Cl)cnc5[nH]4)CCC3)cc2F)c1 [Example 18, N-{4-[1-(6-chloro-3H-imidazo[4,5-b]pyridin-2-yl)cyclobutyl]-2-fluorophenyl}-3-cyanobenzamide] | 0.103 µM | 0.000736 µM |

Next, values leading:

| IC50 [1] | IC50 [2] | Structure (SMILES) |
| --- | --- | --- |
| 0.606 µM | 0.00281 µM | COc1cc(C)c(-c2ccc(C3(c4nc5cc(C(F)(F)F)cnc5[nH]4)COC3)cc2)c(C)n1 [Example 43, 2-{3-[4-(6-methoxy-2,4-dimethylpyridin-3-yl)phenyl]oxetan-3-yl}-6-(trifluoromethyl)-3H-imidazo[4,5-b]pyridine] |
| 0.169 µM | 0.00148 µM | O=C(Nc1cccc(Cl)c1)c1ccc(C2(c3nc4ncc(C(F)(F)F)cc4[nH]3)CCC2)cc1 [Example 27, N-(3-chlorophenyl)-4-(1-(6-(trifluoromethyl)-1H-imidazo[4,5-b]pyridin-2-yl)cyclobutyl)benzamide] |
